Data on three compounds can be found in patent publication US7256219B2, “Multifluoro-substituted chalcones and analogs as activators of caspases and inducers of apoptosis and the use thereof” (Cytovia, Inc., priority 2001, dated 2007).

Each structure is given as a SMILES string.

The subject of experiment [1] is T-47D cells. Put plainly: Caspase cascade activation (N-(Ac-DEVD)-N'-ethoxycarbonyl-R110 fluorogenic substrate) in T-47D cells. In kind it is cell-based, Human. To be noted: 24 h incubation; for Caspase activity Ratio (net RFU of test compound to that of control): 0.016 to 10 μM final; for EC50: Homo sapiens, T47D, read-out: Caspase potency EC50. As to the method:
(§1) Human breast cancer cell lines T-47D and ZR-75-1 were grown according to media component mixtures designated by American Type Culture Collection+10% FCS (Invitrogen Corporation, Life Technologies Division), in a 5% CO2-95% humidity incubator at 37° C. T-47D and ZR-75-1 cells were maintained at a cell density between 50 and 80% confluency at a cell density of 0.1 to 0.6×10^6 cells/ml. Cells were harvested at 600×g and resuspended at 0.65×10^6 cells/ml into appropriate media+10% FCS. An aliquot of […] of cells was added to a well of a 96-well microtiter plate containing 2.5 μl of a 10% DMSO in RPMI-1640 media solution containing 0.16 to 100 μM of 1-[2,5-bis(2,2,2-trifluoroethoxy)phenyl]-3-[4-(trifluoromethyl)phenyl]-2-propen-1-one or other test compound (0.016 to 10 μM final). An aliquot of 22.5 μl of cells was added to a well of a 384-well microtiter plate containing 2.5 μl of a 10% DMSO in RPMI-1640 media solution without test compound as the control sample. The samples were mixed by agitation and then incubated at 37° C. for 24 h in a 5% CO2-95% humidity incubator. After incubation, the samples were removed from the incubator and 25 μl of a solution containing 14 μM of N-(Ac-DEVD)-N′-ethoxycarbonyl-R110 (SEQ. ID NO:1) fluorogenic substrate (Cytovia, Inc.; WO99/18856), 20% sucrose (Sigma), 20 mM DTT (Sigma), 200 mM NaCl (Sigma), 40 mM Na PIPES buffer pH 7.2 (Sigma), and 500 μg/ml lysolecithin (Calbiochem) was added. The samples were mixed by agitation and incubated at room temperature. Using a fluorescent plate reader (Model SpectraMax Gemini, Molecular Devices), an initial reading (T=0) was made approximately 1-2 min after addition of the substrate solution, employing excitation at 485 nm and emission at 530 nm, to determine the background fluorescence of the control sample. After the 3 h incubation, the samples were read for fluorescence as above (T=3 h).
(§2) The Relative Fluorescence Unit values (RFU) were used to calculate the sample readings as follows: RFU(T=3h)−Control RFU(T=0)=Net RFU(T=3h)
(§3) The activity of caspase cascade activation was determined by the ratio of the net RFU value for 1-[2,5-bis(2,2,2-trifluoroethoxy)phenyl]-3-[4-(trifluoromethyl)phenyl]-2-propen-1-one or other test compound to that of control samples. The EC50 (nM) was determined by a sigmoidal dose-response response calculation (Prism 2.0, GraphPad Software Inc.).

The subject of a further experiment is ZR-75-1 cells. Put plainly: Caspase cascade activation (N-(Ac-DEVD)-N'-ethoxycarbonyl-R110 fluorogenic substrate) in ZR-75-1 cells. In kind it is cell-based, Human. To be noted: ZR-75-1, 24 h incubation; for EC50: Homo sapiens, read-out: Caspase potency EC50; for Caspase activity Ratio (net RFU of test compound to that of control): 0.016 to 10 μM final. As to the method: as §1, §2, §3

The test system of the next experiment is PANC-1. Put plainly: Inhibition of cell proliferation (GI50), PANC-1. In kind it is cell-based. The following applies: Homo sapiens, PANC-1, 48 h. As to the method:
(§4) All the cell lines were grown according to the conditions recommended by American Type Culture Collection. An aliquot of 90 μl of cells (2.2×10^4 cells/ml) was added to a well of a 96-well microtiter plate containing 10 μl of a 10% DMSO in RPMI-1640 media solution containing 1 nM to 100 μM of 1-[2,5-bis(2,2,2-trifluoroethoxy)phenyl]-3-[4-(trifluoromethyl)phenyl]-2-propen-1-one (0.1 nM to 10 μM final). An aliquot of 90 μl of cells was added to a well of a 96-well microtiter plate containing 10 μl of a 10% DMSO in RPMI-1640 media solution without compound as the control sample for maximal cell proliferation (AMax). The samples were mixed by agitation and then incubated at 37° C. for 48 h in a 5% CO2-95% humidity incubator. After incubation, the samples were removed from the incubator and 20 μl of CellTiter 96 AQUEOUS One Solution Cell Proliferation™ reagent (Promega) was added. […] Using an absorbance plate reader (Model 1420 Wallac Instruments), an initial reading (T=0) was made approximately 1-2 min after addition of the solution, employing absorbance at 490 nm. This determines the possible background absorbance of the test compounds. No absorbance for 1-[2,5-bis(2,2,2-trifluoroethoxy)phenyl]-3-[4-(trifluoromethyl)phenyl]-2-propen-1-one was found at 490 nm. After the 2-4 h incubation, the samples were read for absorbance as above (ATest). […]

The subject of a further experiment is K562. The experiment in a line: Inhibition of cell proliferation (GI50), K562. In kind it is cell-based. The following applies: Homo sapiens, K562, 48 h. How it is done: as §4
A further experiment concerns MCF-7. Put plainly: Inhibition of cell proliferation (GI50), MCF-7. In kind it is cell-based. To be noted: Homo sapiens, MCF7; MCF-7, 48 h. As to the method:
as §4

Another experiment concerns SK-Br-3. The experiment in a line: Inhibition of cell proliferation (GI50), SK-Br-3. The class given is cell-based. To be noted: Homo sapiens, SK-BR-3, 48 h. How it is done: as §4
Experiment [2] relates to T-47D cells. The experiment in a line: Cell cycle arrest and apoptosis in T-47D cells (propidium iodide flow cytometry). The class given is cell-based, Human. The following applies: 10 μM. How it is done:
T-47D, a breast cancer cell line, was maintained and harvested as described in Example 23. […] As a control, cells were also incubated with equivalent amount of solvent (DMSO). Cells were harvested at 1,200 rpm and then transferred to 12×75 mm polystyrene tubes. Cells were then resuspended in 500 μl of 1% Na Citrate, 0.1% Triton X-100, and 50 μg/ml of propidium iodide and incubated at room temperature for 30 min followed by flow cytometer analysis. All flow cytometry analyses were performed on FACScalibur (Becton Dickinson) using Cell Quest analysis software. The x-axis plotted the amount of fluorescence and the y-axis is plotted the number of cells with the indicated fluorescence. […] An increase from 13% to 33% in the sub-diploid DNA content of cells (FIG. 1) is also seen with compound treatment. The sub-diploid amount of DNA is indicative of apoptotic cells which have undergone DNA degradation or fragmentation.

The test system of a further experiment is T-47D. The experiment in a line: Inhibition of cell proliferation (GI50), T-47D. The class given is cell-based. The following applies: Homo sapiens, T47D, 48 h. As to the method:
as §4

For another experiment, the system named is MDA-MB-435. The experiment in a line: Inhibition of cell proliferation (GI50), MDA-MB-435. The class given is cell-based. To be noted: Homo sapiens, MDA-MB-435, 48 h. How it is done: as §4
The subject of the next experiment is PC-3. The experiment in a line: Inhibition of cell proliferation (GI50), PC-3. The class given is cell-based. To be noted: Homo sapiens, PC-3, 48 h. How it is done:
as §4

Another experiment concerns DLD-1. Put plainly: Inhibition of cell proliferation (GI50), DLD-1. The class given is cell-based. To be noted: Homo sapiens, DLD-1, 48 h. As to the method:
as §4

The next experiment relates to HeLa. Put plainly: Inhibition of cell proliferation (GI50), HeLa. In kind it is cell-based. The following applies: Homo sapiens, 48 h. How it is done: as §4

As usually defined, the EC50 is the midpoint of the concentration-response curve. As for `O=C(C=Cc1ccccc1)c1cc(OCC(F)(F)F)ccc1OCC(F)(F)F` [Example 3, 1-[2,5-Bis(2,2,2-trifluoroethoxy)phenyl]-3-phenyl-2-propen-1-one], the “Caspase activity Ratio (net RFU of test compound to that of control)” value (shortened to “Caspase activity Ratio”) in the experiment with T-47D cells [1] stood at 6.8; in the experiment on ZR-75-1 cells, 3.3. In addition, the 50% effective concentration (EC50) is 1.6 µM with T-47D cells [1] and 5.4 µM in the experiment on ZR-75-1 cells.

Broadly, the GI50 is the concentration at which growth is held to half of that of the control. Low readings indicate more potent growth inhibition, high ones less potent growth inhibition. Regarding `O=C(C=Cc1ccc(C(F)(F)F)cc1)c1cc(OCC(F)(F)F)ccc1OCC(F)(F)F` [Example 4, 1-[2,5-Bis(2,2,2-trifluoroethoxy)phenyl]-3-[4-(trifluoromethyl)phenyl]-2-propen-1-one], the “Caspase activity Ratio” value is 25.2 in the experiment with T-47D cells [1] and 5.5 in the experiment with ZR-75-1 cells. Besides, the EC50 was 5 µM in the experiment with T-47D cells [1] and 6 µM with ZR-75-1 cells. Further, the GI50 with PANC-1 was determined as 3.1 µM; in the experiment on K562, 2.2 µM; with MCF-7, 2.4 µM; with SK-Br-3, 1.8 µM; with T-47D it was 1.5 µM; in the experiment with MDA-MB-435, 3.2 µM. Also, the GI50 in the experiment with PC-3 came out at 3 µM; in the experiment with DLD-1, 2.5 µM; with HeLa, 2.3 µM. In addition, the “sub-diploid DNA content of cells (M1)” value with T-47D cells [2] (T47D, 24 h, FIG. 1B legend) was “increase of sub-diploid DNA content of cells”. Further, the “G2/M DNA content cells” value with T-47D cells [2] (T-47D, FIG. 1B) is recorded as “increase in G2/M DNA content cells”. The “sub-diploid DNA content of cells” value in the experiment with T-47D cells [2] (T-47D, control 13%) is recorded as 33%.

In the case of `O=C(C=Cc1ccc([N+](=O)[O-])cc1)c1cc(OCC(F)(F)F)ccc1OCC(F)(F)F` [Example 15, 1-[2,5-Bis(2,2,2-trifluoroethoxy)phenyl]-3-(4-nitrophenyl)-2-propen-1-one], in the experiment with T-47D cells [1], the “Caspase activity Ratio” value is 20.4 and the 50% effective concentration (EC50) stood at 6.8 µM. Moreover, in the experiment on ZR-75-1 cells, the EC50 worked out at 6.9 µM and the “Caspase activity Ratio” value amounted to 14.9.
